Experimental data as given in the NIST ThermoML archive (doi:10.1016/j.jct.2008.12.018).
± gives the expanded uncertainty stated by the source.

Assay: activity coefficient (dimensionless); of the first substance listed, at infinite dilution; xn = mol fraction of the nth substance listed
Settings: Liquid, Chromatography, x1 = 0

| SMILES | activity coefficient (298.15 K) | activity coefficient (308.15 K) | activity coefficient (318.15 K) | activity coefficient (328.15 K) | activity coefficient (338.15 K) | activity coefficient (348.15 K) | activity coefficient (358.15 K) | activity coefficient (368.15 K) |
| --- | --- | --- | --- | --- | --- | --- | --- | --- |
| C#CCCC [1-pentyne] + CCCCn1cc[n+](C)c1.N#C[S-] | 4.6 ± 0.31 | 4.68 ± 0.32 | 4.71 ± 0.32 | 4.73 ± 0.32 | 4.79 ± 0.33 | 4.85 ± 0.33 | 4.97 ± 0.34 | – |
| COC(C)(C)C [2-methoxy-2-methylpropane] + CCCCn1cc[n+](C)c1.N#C[S-] | 12.8 ± 0.59 | 12.4 ± 0.57 | 11.9 ± 0.55 | 11.4 ± 0.52 | 11.1 ± 0.51 | 10.7 ± 0.49 | 10.6 ± 0.49 | – |
| c1ccccc1 [benzene] + CCCCn1cc[n+](C)c1.N#C[S-] | 2.13 ± 0.14 | 2.15 ± 0.15 | 2.17 ± 0.15 | 2.18 ± 0.15 | 2.2 ± 0.15 | 2.22 ± 0.15 | 2.25 ± 0.15 | 2.27 ± 0.15 |
| CCCCO [butan-1-ol] + CCCCn1cc[n+](C)c1.N#C[S-] | – | 1.32 ± 0.09 | 1.25 ± 0.08 | 1.21 ± 0.08 | 1.16 ± 0.07 | 1.13 ± 0.07 | 1.1 ± 0.07 | 1.08 ± 0.07 |
| C1CCCCCC1 [cycloheptane] + CCCCn1cc[n+](C)c1.N#C[S-] | 56.6 ± 3.9 | 51 ± 3.5 | 46.5 ± 3.2 | 42 ± 2.9 | 38.9 ± 2.7 | 36.1 ± 2.5 | 33.7 ± 2.3 | – |
| C1CCCCC1 [cyclohexane] + CCCCn1cc[n+](C)c1.N#C[S-] | 62.3 ± 4.3 | 53.5 ± 3.7 | 47.1 ± 3.2 | 41.1 ± 2.8 | 36.8 ± 2.5 | 33.5 ± 2.3 | 31.1 ± 2.1 | – |
| C1CCCCCCC1 [cyclooctane] + CCCCn1cc[n+](C)c1.N#C[S-] | 70 ± 4.8 | 63.1 ± 4.3 | 57.8 ± 4 | 53.2 ± 3.6 | 48.6 ± 3.3 | 45 ± 3.1 | 41.9 ± 2.9 | – |
| C1CCCC1 [cyclopentane] + CCCCn1cc[n+](C)c1.N#C[S-] | 46.9 ± 3.2 | 39.7 ± 2.7 | 34.9 ± 2.4 | 30 ± 2.1 | 26.8 ± 1.8 | 24.2 ± 1.7 | 23.1 ± 1.6 | – |
